Measurements reported in patent US5595730A, “Lactate dehydrogenase inhibitors in cosmetic compositions” (priority 1996, dated 1997).
Read-outs that look alike come from different tables or passages of the source.

How the values were obtained:
[1] = system: Fibroblast Lactate Dehydrogenase; test: Fibroblast lactate dehydrogenase (LDH) inhibition, cell lysate; type: biochemical, human
Experimental: (§1) All reagents were purchased from Sigma Chemical Co., St. Louis, Mo., USA. Sigma procedure No. 500 was modified for our purposes. One mL of pyruvate (pH=7.5) substrate (Sigma […]-1) was added to a vial containing 1 mg NADH (Sigma 340-101). In a 96-well plate, the following components were added to each test well: 10 μl pyruvate/NADH mixture, and 10 μl cell lysate. For preparation cell lysates, neonatal human keratinocytes or fibroblasts (Clonetic Corp., San Diego, Calif.) were cultured in tissue culture plates (Corning, USA). Cells were scraped in PBS (pH=7.4) and this solution was used as a source of L-lactate dehydrogenase. If such cell lysate was not available, a commercial preparation of L-lactic dehydrogenase (E.C.1.1.1.27), Sigma L9889, from porcine heart could be used in place of the cell lysate. For positive control, the inhibitor was replaced with 10 μl of PBS. For blank determination, the lysate or enzyme was replaced with […]. After mixing, the plate was incubated for 30 minutes at 37° C. Then 20 μl of color reagent (Sigma 505-2) was added to each well. After 20 minutes at room temperature, 150 μl of 0.4N NaOH was added, and the plate was read for absorbance at 490 nm in a Dynatech MR 7000 Microplate Reader. To calculate % inhibition, the control activity (CA) was first determined by subtracting the absorbance of the positive control from the blank. Then the activity in the presence of the inhibitor (IA) was calculated by subtracting the appropriate absorbance from the blank. % Inhibition was then calculated as: ((CA-IA)/CA)*100.

[2] = system: Normal human epidermal keratinocytes (NHEK); test: Keratinocyte proliferation (DNA content, fluorometric); type: cell-based; conditions: for activation at 313 µM / activation at 625 µM / activation at 1250 µM / activation at 2500 µM / activation at 5000 µM: Homo sapiens, NHEK, 72 h
Experimental: Normal human epidermal keratinocytes (NHEK) derived from neonatal foreskin were used for all experiments. Media were purchased from Clonetics Corp., San Diego, Calif. Cell stocks frozen in passage 2 were grown in Keratinocyte Growth Medium (KGM) and passaged when 70-80% confluent. Cells were seeded in 96 well plates (Corning) at a density of 7500 cells/well in KGM. After 24 hours, cells were rinsed and dosed with test compounds in 200 μl of Keratinocyte Basal Medium (KBM). Plates were incubated for three days at 37° C., 5% CO2. Cell proliferation was estimated by assaying for DNA content by a fluorometric method described by Rago et al. (Analytical Biochemistry, 191:31-34, 1990). Medium was removed and cells were rinsed with phosphate buffered saline solution. 100 μl of sterile distilled water was added to each well and plates were frozen at -70° C. for one and a half hours. Plates were thawed for one hour at which time 100 μl of a 20 ug/ml solution of Bisbenzimide H33258 fluorochrome (Calbiochem Corp., La Jolla, Calif.) was added to each well. The fluorochrome was prepared just prior to use in 10 mM Tris, 1 mM EDTA, 4M NaCI, pH 7.4. Plates were read in a Millipore Cytofluor fluorescent plate reader to quantify DNA (excitation 360 nm, emission 460 nm). Percent increase over control was calculated from blank-corrected readings as (treated-untreated)/(untreated)*100. Each data point in the Tables below represents a mean of 5 or 6 replicates.
The procedure of Example 2 was repeated except that various co-active ingredients were tested for their ability to stimulate keratinocyte proliferation.
The procedure of Example 2 was repeated to test the effect of combination of an LDH inhibitor with another carboxylic acid on keratinocyte proliferation.

[3] = system: Keratinocyte Lactate Dehydrogenase; test: Keratinocyte lactate dehydrogenase (LDH) inhibition, cell lysate; type: biochemical, human
Experimental: as §1

[4] = Table 3, 0.313 mM, three days, read-out: Keratinocyte Proliferation (% increase over control)
[5] = Table 3, 0.625 mM, three days, read-out: Keratinocyte Proliferation (% increase over control)
[6] = Table 3, 1.25 mM, three days, read-out: Keratinocyte Proliferation (% increase over control)
[7] = Table 3, 2.5 mM, three days, read-out: Keratinocyte Proliferation (% increase over control)
[8] = Table 3, 5 mM, three days, read-out: Keratinocyte Proliferation (% increase over control)

Molecule	Fibroblast Lactate Dehydrogenase Inhibition (% Inhibition) ([1]; 0.625 mM)	Fibroblast Lactate Dehydrogenase Inhibition (% Inhibition) ([1]; 1.25 mM)	Fibroblast Lactate Dehydrogenase Inhibition (% Inhibition) ([1]; 2.5 mM)	Fibroblast Lactate Dehydrogenase Inhibition (% Inhibition) ([1]; 5 mM)	other results
O=C(O)CO [Glycolate]	0%	0%	0%	0%	
C[C@@H](O)C(=O)O [D-lactate]	0%	0%	0%	0%	
O=C(O)CC(=O)O [Malonate]	0%	0%	0%	0%	
O=C(O)C(O)C(=O)O [Tartronate]					activation at 313 µM [2, 4]: 37%; activation at 625 µM [2, 5]: 45%; activation at 1250 µM [2, 6]: 51%; activation at 2500 µM [2, 7]: 50%; activation at 5000 µM [2, 8]: 17%; Keratinocyte proliferation, % Increase Over Control ([2]; Table 8, single agent alone, 0.156 mM): 44%; Keratinocyte proliferation, % Increase Over Control ([2]; Table 8, single agent alone, 0.313 mM): 69%; Keratinocyte proliferation, % Increase Over Control ([2]; Table 8, single agent alone, 0.625 mM): 58%; Keratinocyte proliferation, % Increase Over Control ([2]; Table 8, single agent alone, 1.25 mM): 67%; Keratinocyte proliferation, % Increase Over Control ([2]; Table 8, single agent alone, 2.5 mM): 76%; Keratinocyte proliferation, % Increase Over Control ([2]; Table 8, single agent alone, 5.0 mM): 21%
O=C(O)C(=O)C(=O)O [Ketomalonate]					activation at 313 µM [2, 4]: 23%; activation at 625 µM [2, 5]: 10%; activation at 1250 µM [2, 6]: 0%; activation at 2500 µM [2, 7]: 0%; activation at 5000 µM [2, 8]: 0%; Keratinocyte proliferation, % Increase Over Control ([2]; Table 7, single agent alone, 0.156 mM): 20%; Keratinocyte proliferation, % Increase Over Control ([2]; Table 7, single agent alone, 0.313 mM): 48%; Keratinocyte proliferation, % Increase Over Control ([2]; Table 7, single agent alone, 0.625 mM): 50%; Keratinocyte proliferation, % Increase Over Control ([2]; Table 7, single agent alone, 1.25 mM): 59%; Keratinocyte proliferation, % Increase Over Control ([2]; Table 7, single agent alone, 2.5 mM): 45%; Keratinocyte proliferation, % Increase Over Control ([2]; Table 7, single agent alone, 5.0 mM): 20%
O=C(O)C[C@H](O)C(=O)O [L-malate]	0%	0%	0%	0%	
C[C@H](O)C(=O)O [L-lactate]	0%	0%	0%	0%	
O=C(O)C(=O)O [Oxalate]	54%	71%	85%	89%	Keratinocyte Lactate Dehydrogenase Inhibition (% Inhibition) ([3]; 0.625 mM): 39%; Keratinocyte Lactate Dehydrogenase Inhibition (% Inhibition) ([3]; 1.25 mM): 58%; Keratinocyte Lactate Dehydrogenase Inhibition (% Inhibition) ([3]; 2.5 mM): 76%; Keratinocyte Lactate Dehydrogenase Inhibition (% Inhibition) ([3]; 5 mM): 87%; activation at 313 µM ([2]; read-out: Keratinocyte Proliferation (% increase over control), Table 3, 0.313 mM, three days): 18%; activation at 625 µM ([2]; read-out: Keratinocyte Proliferation (% increase over control), Table 3, 0.625 mM, three days): 27%; activation at 1250 µM ([2]; read-out: Keratinocyte Proliferation (% increase over control), Table 3, 1.25 mM, three days): 2%; activation at 2500 µM ([2]; read-out: Keratinocyte Proliferation (% increase over control), Table 3, 2.5 mM, three days): 0%; activation at 5000 µM ([2]; read-out: Keratinocyte Proliferation (% increase over control), Table 3, 5 mM, three days): 0%
Methylpyrazole	0%	0%	0%	0%	
O=CC(=O)O [Glyoxylate]					activation at 313 µM [2, 4]: 33%; activation at 625 µM [2, 5]: 36%; activation at 1250 µM [2, 6]: 9%; activation at 2500 µM [2, 7]: 0%; activation at 5000 µM [2, 8]: 0%
NCC(=O)O [Glycinate]	0%	0%	0%	0%	
c1cn[nH]c1 [Pyrazole]	0%	0%	0%	0%	
